Experiments:
Assay in all cases: Post-emergence test, weed control effect
Type in all cases: in vivo
Settings in all cases: after 3 weeks
Veronica polita = system: Veronica polita
Procedure, shortened: (§1)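 Activity is expressed as a level from 0 (no effect) to 10 (plant dead), each step matching a further 10% fresh-weight inhibition, assessed 3 weeks post-treatment. Treatment: spray at 2-3 leaf stage of pot-grown plants, compound in acetone, Tween-80 and water with 80% vegetable oil methyl ester synergist at 1500 g/ha.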

Amaranthus retroflexus = system: Amaranthus retroflexus
Procedure, shortened: as §1

Chenopodiaceae = system: Chenopodiaceae
Procedure, shortened: as §1

Rorippa indica = system: Rorippa indica
Procedure, shortened: as §1

CC(=O)Oc1ccccc1C(=O)Oc1cc(C(F)(F)F)nnc1-c1ccccc1 [Compound 1-87]
10: weed control effect, Veronica polita (activity level) (Veronica polita; Dose 3000 g/ha) | weed control effect, Amaranthus retroflexus (activity level) (Amaranthus retroflexus; Dose 3000 g/ha) | weed control effect, Chenopodiaceae (activity level) (Chenopodiaceae; Dose 3000 g/ha) | weed control effect, Rorippa indica (activity level) (Rorippa indica; Dose 3000 g/ha)

C#Cc1ccc(-c2nnc(C(F)(F)F)cc2O)c(OC(C)=O)c1 [Compound 173]
10: weed control effect (activity level), Veronica polita (Veronica polita; dose 2000 g/ha) | weed control effect (activity level), Amaranthus retroflexus (Amaranthus retroflexus; dose 2000 g/ha) | weed control effect (activity level), Chenopodiaceae (Chenopodiaceae; dose 2000 g/ha) | weed control effect (activity level), Rorippa indica (Rorippa indica; dose 2000 g/ha)

Oc1cc(C(F)(F)F)nnc1-c1ccc(Cl)c(Cl)c1Cl [Compound 753]
10: weed control effect (activity level), Veronica polita (Veronica polita; Dose 3000 g/ha) | weed control effect (activity level), Amaranthus retroflexus (Amaranthus retroflexus; Dose 3000 g/ha) | weed control effect (activity level), Chenopodiaceae (Chenopodiaceae; Dose 3000 g/ha) | weed control effect (activity level), Rorippa indica (Rorippa indica; Dose 3000 g/ha)

Oc1cc(C(F)(F)F)nnc1-c1ccc(F)cc1C(F)(F)F [Compound 764]
10: weed control effect (activity level), Veronica polita (Veronica polita; Dose 3000 g/ha) | weed control effect (activity level), Amaranthus retroflexus (Amaranthus retroflexus; Dose 3000 g/ha) | weed control effect (activity level), Chenopodiaceae (Chenopodiaceae; Dose 3000 g/ha) | weed control effect (activity level), Rorippa indica (Rorippa indica; Dose 3000 g/ha)

CC(C)CC(CC(C)C)=NOc1cc(C(F)(F)F)nnc1-c1ccc(Cl)cc1 [Compound 1-180]
10: weed control effect, Veronica polita (activity level) (Veronica polita; Dose 3000 g/ha) | weed control effect, Amaranthus retroflexus (activity level) (Amaranthus retroflexus; Dose 3000 g/ha) | weed control effect, Chenopodiaceae (activity level) (Chenopodiaceae; Dose 3000 g/ha) | weed control effect, Rorippa indica (activity level) (Rorippa indica; Dose 3000 g/ha)

Cc1ccc(-c2nnc(C(F)(F)F)cc2OC(=S)OCCC(C)C)c([N+](=O)[O-])c1 [Compound 1-159]
10: weed control effect, Veronica polita (activity level) (Veronica polita; Dose 3000 g/ha) | weed control effect, Amaranthus retroflexus (activity level) (Amaranthus retroflexus; Dose 3000 g/ha) | weed control effect, Chenopodiaceae (activity level) (Chenopodiaceae; Dose 3000 g/ha) | weed control effect, Rorippa indica (activity level) (Rorippa indica; Dose 3000 g/ha)

Oc1cc(C(F)(F)F)nnc1-c1cncc(C(F)(F)F)c1 [Compound 977]
10: weed control effect (activity level), Veronica polita (Veronica polita; Dose 3000 g/ha) | weed control effect (activity level), Amaranthus retroflexus (Amaranthus retroflexus; Dose 3000 g/ha) | weed control effect (activity level), Chenopodiaceae (Chenopodiaceae; Dose 3000 g/ha) | weed control effect (activity level), Rorippa indica (Rorippa indica; Dose 3000 g/ha)

CCCC/C(C)=N\Oc1cc(C(F)(F)F)nnc1-c1ccc(S(C)(=O)=O)cc1 [Compound 1-175]
10: weed control effect, Veronica polita (activity level) (Veronica polita; Dose 3000 g/ha) | weed control effect, Amaranthus retroflexus (activity level) (Amaranthus retroflexus; Dose 3000 g/ha) | weed control effect, Chenopodiaceae (activity level) (Chenopodiaceae; Dose 3000 g/ha) | weed control effect, Rorippa indica (activity level) (Rorippa indica; Dose 3000 g/ha)

O=Cc1ccc(-c2nnc(C(F)(F)F)cc2O)cc1F [Compound 65]
10: weed control effect (activity level), Veronica polita (Veronica polita; dose 1000 g/ha) | weed control effect (activity level), Amaranthus retroflexus (Amaranthus retroflexus; dose 1000 g/ha) | weed control effect (activity level), Chenopodiaceae (Chenopodiaceae; dose 1000 g/ha) | weed control effect (activity level), Rorippa indica (Rorippa indica; dose 1000 g/ha)

CC(=O)c1cccc(S(=O)(=O)Oc2cc(C(F)(F)F)nnc2-c2ccccc2)c1 [Compound 1-140]
10: weed control effect, Veronica polita (activity level) (Veronica polita; Dose 3000 g/ha) | weed control effect, Amaranthus retroflexus (activity level) (Amaranthus retroflexus; Dose 3000 g/ha) | weed control effect, Chenopodiaceae (activity level) (Chenopodiaceae; Dose 3000 g/ha) | weed control effect, Rorippa indica (activity level) (Rorippa indica; Dose 3000 g/ha)

N#Cc1ccc(-c2nnc(C(F)(F)F)cc2O)s1 [Compound 873]
10: weed control effect (activity level), Veronica polita (Veronica polita; Dose 3000 g/ha) | weed control effect (activity level), Amaranthus retroflexus (Amaranthus retroflexus; Dose 3000 g/ha) | weed control effect (activity level), Chenopodiaceae (Chenopodiaceae; Dose 3000 g/ha) | weed control effect (activity level), Rorippa indica (Rorippa indica; Dose 3000 g/ha)

CC(C)COC(=O)Oc1cc(C(F)(F)F)nnc1-c1cccc(C(F)(F)F)c1 [Compound 1-30]
10: weed control effect, Veronica polita (activity level) (Veronica polita; Dose 3000 g/ha) | weed control effect, Amaranthus retroflexus (activity level) (Amaranthus retroflexus; Dose 3000 g/ha) | weed control effect, Chenopodiaceae (activity level) (Chenopodiaceae; Dose 3000 g/ha) | weed control effect, Rorippa indica (activity level) (Rorippa indica; Dose 3000 g/ha)

Cc1ncccc1-c1nnc(C(F)(F)F)cc1O [Compound 973]
10: weed control effect (activity level), Veronica polita (Veronica polita; Dose 3000 g/ha) | weed control effect (activity level), Amaranthus retroflexus (Amaranthus retroflexus; Dose 3000 g/ha) | weed control effect (activity level), Chenopodiaceae (Chenopodiaceae; Dose 3000 g/ha) | weed control effect (activity level), Rorippa indica (Rorippa indica; Dose 3000 g/ha)

Cc1cc(-c2nnc(C(F)(F)F)cc2O)n(C(C)C)n1 [Compound 829]
10: weed control effect (activity level), Veronica polita (Veronica polita; Dose 3000 g/ha) | weed control effect (activity level), Amaranthus retroflexus (Amaranthus retroflexus; Dose 3000 g/ha) | weed control effect (activity level), Chenopodiaceae (Chenopodiaceae; Dose 3000 g/ha) | weed control effect (activity level), Rorippa indica (Rorippa indica; Dose 3000 g/ha)

Cn1ncc(OCc2ccccc2)c1-c1nnc(C(F)(F)F)cc1O [Compound 813]
10: weed control effect (activity level), Veronica polita (Veronica polita; Dose 3000 g/ha) | weed control effect (activity level), Amaranthus retroflexus (Amaranthus retroflexus; Dose 3000 g/ha) | weed control effect (activity level), Chenopodiaceae (Chenopodiaceae; Dose 3000 g/ha) | weed control effect (activity level), Rorippa indica (Rorippa indica; Dose 3000 g/ha)

C/C(CC(C)C)=N/Oc1cc(C(F)(F)F)nnc1-c1cccc(C(F)(F)F)c1 [Compound 1-173]
10: weed control effect, Veronica polita (activity level) (Veronica polita; Dose 3000 g/ha) | weed control effect, Amaranthus retroflexus (activity level) (Amaranthus retroflexus; Dose 3000 g/ha) | weed control effect, Chenopodiaceae (activity level) (Chenopodiaceae; Dose 3000 g/ha) | weed control effect, Rorippa indica (activity level) (Rorippa indica; Dose 3000 g/ha)

O=[N+]([O-])c1cc(-c2nnc(C(F)(F)F)cc2O)ccc1Br [Compound 755]
10: weed control effect (activity level), Veronica polita (Veronica polita; Dose 3000 g/ha) | weed control effect (activity level), Amaranthus retroflexus (Amaranthus retroflexus; Dose 3000 g/ha) | weed control effect (activity level), Chenopodiaceae (Chenopodiaceae; Dose 3000 g/ha) | weed control effect (activity level), Rorippa indica (Rorippa indica; Dose 3000 g/ha)

CCN(CC)C(=S)Oc1cc(C(F)(F)F)nnc1-c1ccc(F)cc1 [Compound 1-162]
10: weed control effect, Veronica polita (activity level) (Veronica polita; Dose 3000 g/ha) | weed control effect, Amaranthus retroflexus (activity level) (Amaranthus retroflexus; Dose 3000 g/ha) | weed control effect, Chenopodiaceae (activity level) (Chenopodiaceae; Dose 3000 g/ha) | weed control effect, Rorippa indica (activity level) (Rorippa indica; Dose 3000 g/ha)

Source: patent US12568972B2, “Pyridazinol compounds and derivatives, preparation methods, herbicidal compositions and applications thereof” (Qingdao Kingagroot Chemical Compound Co., Ltd., priority 2018, dated 2026)
